Assay results published in publication PMC7766132, “N-Terminal Tagging with GFP Enhances Selectivity of Agitoxin 2 to Kv1.3-Channel Binding Site” (Toxins, 2020).

Columns and labels:
KcsA-Kv1.3 [1] = test: Competitive displacement of GFP-L2-AgTx2 from KcsA-Kv1.3 on spheroplasts; assay type: binding; conditions: for Displacement of GFP-L2-AgTx2 from complexes with KcsA-Kv1.3 (in words) / Concentration range of competition with GFP-L2-AgTx2 for KcsA-Kv1.3: GFP-L2-AgTx2 20 nM; for Displacement of GFP-L2-AgTx2 from complexes with KcsA-Kv1.3 (in words) / Kd: 2 h, 37 °C; for Displacement of GFP-L2-AgTx2 from complexes with KcsA-Kv1.3 (in words): Figure 2D; for Kd: fluorescent ligand GFP-L2-AgTx2 20 nM, Kap = IC50/(1 + [L]/[Kd]), mean ± SEM, n = 3, read-out: Apparent dissociation constant Kap of peptide blocker – Kv1.3-binding site complexes; for Concentration range of competition with GFP-L2-AgTx2 for KcsA-Kv1.3: titration, Figure 3E
KcsA-Kv1.3 [2] = test: Competitive displacement of AgTx2-L3-GFP from KcsA-Kv1.3 on spheroplasts; assay type: binding; conditions: AgTx2-L3-GFP 20 nM; Figure 4
mKate2-hKv1.3-del [3] = test: Competitive displacement of GFP-L2-AgTx2 from mKate2-hKv1.3-del on HEK293 cells; assay type: cell-based, human; conditions: GFP-L2-AgTx2 40 nM, AgTx2 400 nM, 40 min
Excerpt: KCNA3 gene encoding human Kv1.3 (hKv1.3, Accession number NP_002223.3) was a generous gift from Dr. A. Vassilevski. The gene was amplified using primers KCNA3-del-f1 and KCNA3-r1 (Table 2) to obtain KCNA3-del gene encoding N-terminally truncated protein, in which residues M1 through D52 were deleted. The truncated gene was inserted into BglII/HindIII sites of pmKate2-C plasmid (Evrogen, Moscow, Russia) to obtain the resulting plasmid pmKate2-KCNA3-del, which was further used for transfection of HEK293T cells. In the hybrid protein, mKate2-hKv1.3-del, mKate2 was linked to the N-terminus of the hKv1.3-del channel through the 9-aa flexible linker. […]
HEK 293 cells (from the collection of the Institute of Cytology RAS) were grown (37 °C, 5% CO2) in DMEM/F12 (Paneco, Russia) containing 5% fetal bovine serum (FBS, HyClone, Utah, USA) and 2 mM L-glutamine. […] Competitive binding was assessed by incubating cells with GFP-L2-AgTx2 (40 nM) and AgTx2 (400 nM) for 40 min. […]
Experiments with HEK293 cells were performed with a laser scanning confocal microscope Leica-SP2 (Leica Microsystems GmbH, Wetzlar, Germany). […] Fluorescence of GFP-tagged AgTx2 was excited at the 488 nm wavelength and recorded in the 495–535 nm range. Fluorescence of mKate2-hKv1.3 was excited at the 561 nm wavelength and recorded in the 650–700 nm range.

KcsA-Kv1.6 = test: Competitive displacement of AgTx2-L3-GFP from KcsA-Kv1.6 on spheroplasts; assay type: binding; conditions: AgTx2-L3-GFP 20 nM; Figure 4
Kv1.6 = conditions: cited from earlier work
Excerpt: (§1) AgTx2 was successfully used in the form of a fluorescently labeled peptide (either RFP-AgTx2, or AgTx2 chemically labeled with tetramethylrhodamine, R-AgTx2) to probe binding affinities of various peptide toxins to different Kv1 channels. Extending color variety of AgTx2-based FP-Tx, we report here on the design of GFP-tagged AgTx2. Ability of GFP-tagged AgTx2 to interact with the pore blocker bi ... || To clarify the structural basis of the advanced selectivity of GFP-L2-AgTx2, a homologous GFP-L1-AgTx2 ligand was produced, in which the 45-aminoacid L1 linker was used instead of the L2 linker (Figure 1A). […] Fusion of AgTx2 with GFP was performed using the 20-aa glycine-rich L3 linker, whose sequence was similar to the L2 linker.

Kv1.1 = conditions: cited from earlier work
Excerpt: as §1

Kv1.2 = conditions: cited from earlier work
Excerpt: Several fluorescently labeled peptide toxins were produced by chemical synthesis using reactive fluorescent organic dyes. The procedures are usually laborious, and the yields of the labeled products are often low. As an alternative, genetically encoded fluorescent protein-scorpion toxin chimeras (FP-Tx), which are the polypeptide ligands of potassium voltage-gated Kv1-channels were recently developed. […] AgTx2 was successfully used in the form of a fluorescently labeled peptide (either RFP-AgTx2, or AgTx2 chemically labeled with tetramethylrhodamine, R-AgTx2) to probe binding affinities of various peptide toxins to different Kv1 channels. Extending color variety of AgTx2-based FP-Tx, we report here on the design of GFP-tagged AgTx2. Ability of GFP-tagged AgTx2 to interact with the pore blocker bi ...

KcsA-Kv1.1 = test: Competitive displacement of AgTx2-L3-GFP from KcsA-Kv1.1 on spheroplasts; assay type: binding; conditions: AgTx2-L3-GFP 20 nM; Figure 4
Kv1.3 = conditions: cited from earlier work
Excerpt: AgTx2 was successfully used in the form of a fluorescently labeled peptide (either RFP-AgTx2, or AgTx2 chemically labeled with tetramethylrhodamine, R-AgTx2) to probe binding affinities of various peptide toxins to different Kv1 channels. Extending color variety of AgTx2-based FP-Tx, we report here on the design of GFP-tagged AgTx2. Ability of GFP-tagged AgTx2 to interact with the pore blocker bi ... || To verify specificity of GFP-L2-AgTx2 interaction with the Kv1.3 binding site on the surface of KcsA-Kv1.3-presenting spheroplasts, we have studied the effect of well-known potassium channel peptide blockers on this interaction (Figure 2D). […] Scillato ... || To clarify the structural basis of the advanced selectivity of GFP-L2-AgTx2, a homologous GFP-L1-AgTx2 ligand was produced, in which the 45-aminoacid L1 linker was used instead of the L2 linker (Figure 1A).

KcsA-Kv1.3 [4] = test: Competitive displacement of His6-GFP-L2-AgTx2 from KcsA-Kv1.3 on spheroplasts; assay type: binding; conditions: for Kd: fluorescent ligand His6-GFP-L2-AgTx2 20 nM, 2 h, 37 °C, Kap = IC50/(1 + [L]/[Kd]), mean ± SEM, n = 3, read-out: Apparent dissociation constant Kap of peptide blocker – Kv1.3-binding site complexes; for Concentration range of competition with His6-GFP-L2-AgTx2 for KcsA-Kv1.3: titration, His6-GFP-L2-AgTx2 20 nM, Figure 3F
KCa2.3 = conditions: known pharmacology, no reference given; cited from earlier work
mKate2-hKv1.3-del [5] = conditions: transient expression; cited from earlier work
Excerpt: In the following experiments we have verified, if AgTx2-L2-GFP, His6-AgTx2-L2-GFP and GFP-L1-AgTx2 can be used as fluorescent probes of Kv1.3 channels on the membrane of eukaryotic cells. Recently, we have designed a plasmid that encoded the fluorescently labeled human Kv1.3 channel (mKate2-hKv1.3-del) with enhanced presentation on the membrane of eukaryotic cells. […] Previously, the ...

Row | Compound | Displacement of GFP-L2-AgTx2 from complexes with KcsA-Kv1.3 (in words) (KcsA-Kv1.3 [1]) | Kd (KcsA-Kv1.3 [1]) [nM] | Concentration range of competition with GFP-L2-AgTx2 for KcsA-Kv1.3 (KcsA-Kv1.3 [1]) | Displacement of AgTx2-L3-GFP from complexes with KcsA-Kv1.3 (in words) (KcsA-Kv1.3 [2]) | Displacement of GFP-L2-AgTx2 from mKate2-hKv1.3-del at the cell membrane (in words) (mKate2-hKv1.3-del [3]) | Displacement of AgTx2-L3-GFP from complexes with KcsA-Kv1.6 (in words) (KcsA-Kv1.6) | Affinity to Kv1.6 (in words) (Kv1.6) | Affinity to Kv1.1 (in words) (Kv1.1) | Affinity to Kv1.2 (in words) (Kv1.2) | Displacement of AgTx2-L3-GFP from complexes with KcsA-Kv1.1 (in words) (KcsA-Kv1.1) | Affinity to Kv1.3 (in words) (Kv1.3) | Selectivity for Kv1.3 over Kv1.1 and Kv1.6 channels (Kv1.3) | Kd (KcsA-Kv1.3 [4]) [nM] | Concentration range of competition with His6-GFP-L2-AgTx2 for KcsA-Kv1.3 (KcsA-Kv1.3 [4]) | Affinity to Kv1.3 channels (in words) (Kv1.3) | Pore block of KCa2.3 channel (in words) (KCa2.3) | Interaction with Kv1.3 channel (in words) (Kv1.3; known pharmacology, no reference given) | Binding to mKate2-hKv1.3-del in eukaryotic cells (in words) (mKate2-hKv1.3-del [5])
1 | CC[C@H](C)[C@@H]1NC(=O)[C@@H]2CSSC[C@@H]3NC(=O)[C@H](CCCCN)NC(=O)[C@H](CCCNC(=N)N)NC(=O)[C@H](CC(N)=O)NC(=O)[C@H](CCSC)NC(=O)[C@H](CSSC[C@H](NC(=O)[C@H](CO)NC(=O)[C@@H](NC(=O)[C@H](CC(N)=O)NC(=O)[C@@H](NC(=O)[C@@H]4CCCN4C(=O)[C@@H](NC(=O)CN)C(C)C)[C@@H](C)CC)C(C)C)C(=O)N[C@@H]([C@@H](C)O)C(=O)NCC(=O)N[C@@H](CO)C(=O)N4CCC[C@H]4C(=O)N[C@@H](CCC(N)=O)C(=O)N2)NC(=O)[C@H](CCCCN)NC(=O)CNC(=O)[C@H](Cc2ccccc2)NC(=O)[C@H](CCCNC(=N)N)NC(=O)[C@H](CCSC)NC(=O)CNC(=O)[C@H](C)NC(=O)[C@H](CC(=O)O)NC(=O)[C@H](CCCCN)NC(=O)[C@H](CSSC[C@@H](C(=O)N[C@H](C(=O)N2CCC[C@H]2C(=O)N[C@@H](CCCCN)C(=O)O)[C@@H](C)O)NC(=O)[C@H](Cc2c[nH]cn2)NC3=O)NC(=O)[C@@H]2CCCN2C(=O)[C@H](CCCCN)NC1=O [AgTx2, agitoxin 2] | low nanomolar | 0.23 ± 0.05 | nanomolar concentration range | readily displaced | displaced totally | readily displaced | sub-nanomolar affinity | sub-nanomolar affinity | nanomolar affinity | readily displaced | sub-nanomolar affinity | ca. tenfold | 0.07 ± 0.004 | nanomolar concentration range |  |  |  | 
2 | CC[C@H](C)[C@H](NC(=O)[C@H](CCC(=O)O)NC(=O)[C@@H](NC(=O)CN)C(C)C)C(=O)N[C@@H](CC(N)=O)C(=O)N[C@H](C(=O)N[C@@H](CCCCN)C(=O)N[C@H]1CSSC[C@@H]2NC(=O)[C@H](CCCCN)NC(=O)CNC(=O)[C@H](Cc3ccccc3)NC(=O)[C@H](CCCNC(=N)N)NC(=O)[C@H](CCSC)NC(=O)CNC(=O)[C@H](C)NC(=O)[C@H](CC(=O)O)NC(=O)[C@H](CCCCN)NC(=O)[C@@H]3CSSC[C@@H](C(=O)N[C@H](C(=O)N4CCC[C@H]4C(=O)N[C@@H](CCCCN)C(=O)O)[C@@H](C)O)NC(=O)[C@H](Cc4c[nH]cn4)NC(=O)[C@H](CSSC[C@H](NC(=O)[C@H](CCC(N)=O)NC(=O)[C@@H]4CCCN4C(=O)[C@H](CO)NC(=O)CNC(=O)[C@H](CO)NC1=O)C(=O)N[C@@H](CC(C)C)C(=O)N[C@@H](CCCCN)C(=O)N1CCC[C@H]1C(=O)N3)NC(=O)[C@H](CCCCN)NC(=O)[C@H](CCCNC(=N)N)NC(=O)[C@H](CC(N)=O)NC(=O)[C@H](CCSC)NC2=O)C(C)C [KTx1, kaliotoxin 1] | low nanomolar | 0.1 ± 0.04 | nanomolar concentration range | readily displaced |  | readily displaced |  |  |  | readily displaced |  |  | 0.071 ± 0.007 | nanomolar concentration range |  |  |  | 
3 | Hetlaxin [HeTx] | low micromolar concentrations | 39 | higher concentrations |  |  |  |  |  |  |  |  |  | 45 | higher concentrations | moderate-affinity ligand |  |  | 
4 | Scillatoxin [ScTx] | did not affect GFP-L2-AgTx2 binding to KcsA-Kv1.3 |  |  | did not compete |  | did not compete |  |  |  | did not compete |  |  |  |  |  | pore blocker of KCa2.3 channel | no ability to interact with Kv1.3 channel | 
5 | hongotoxin 1 |  |  |  |  |  |  |  |  |  |  |  |  |  |  |  |  |  | bind specifically
